{"source": "patent US7776873B2", "about": "“Method for treating damage to gastric mucosa” (Yuhan Corporation, priority 2005, dated 2010)", "key": {"[1]": {"tested_on": "heat-shock proteins, HO-1, HSP27, HSP70", "assay": "Expression of heat-shock proteins in indomethacin-treated cells (Western blotting)", "type": "cell-based, rat", "details": "RGM-1 cells, 5, 10 and 25 uM for 16 hours, then indomethacin 0.5 uM 16 hours, FIG. 7", "protocol": "To measure expression of heat-shock proteins, HO-1, HSP27, HSP70, cells were pretreated with concentrations of 5, 10, and 25 μM revaprazan, and then treated with indomethacin (a NSAID, 0.5 μM).\nThe rat gastric mucosal (RGM-1, RIKEN cell bank, Japan) cells were seeded in culture dishes at 2×10^6 cells/100 mm^2 and cultured in DMEM-F12 (Gibco BRL, Grand Island, N.Y., U.S.A.), supplemented with 100 units/mL penicillin, 100 ug/mL streptomycin, and 10% FBS (Fetal Bovine Serum). RGM-1 cells were pretreated with revaprazan (5, 10, and 25 uM) and cultured 37° C. for 16 hours. The culture media were removed and the cells were washed three times with PBS (137 mM NaCl, 2.7 mM KCl, 10 mM Na2HPO4, and 2 mM KH2PO4). A solution of indomethacin in sterilized water was added to the cells to reach a final concentration of 0.5 uM, and the cells were incubated at 37° C. for 16 hours. After incubation, the cells were resuspended in a lysis buffer (20 mM Tris-Cl (pH 7.5), 150 mM NaCl, 1% Triton X-100, 1 mM EDTA, and protease inhibitor cocktail (Roche, Mannheim, Germany)). The suspension was sonicated for approximately 10 seconds, four times using the BIORUPTOR (Cosmo Bio, Koto-ku, Tokyo), and centrifuged at 4° C., 12000 rpm for 30 minutes. […]"}, "[2]": {"tested_on": "ERK (extracellular signal-regulated kinase)", "assay": "H. pylori-induced ERK activation (Western blot for p-ERK)", "type": "cell-based, human", "details": "AGS cells, 5 and 25 uM for 16 hours, then H. pylori 30 minutes, FIG. 4", "protocol": "H. pylori-induced cytotoxicity activates MAPK (Mitogen-Activated Protein Kinase), thereby resulting in apoptosis. Therefore, H. pylori infection leads to an increase in phosphorylation of ERK among three major subfamilies of MAPKs.\nThe human gastric epithelial (AGS, KCLB 21739) cells were seeded in culture dishes at 2×10^6 cells/100 mm^2 and cultured in RPMI 1640 (Gibco BRL, Grand Island, N.Y., U.S.A.), supplemented with 100 units/mL penicillin, 100 ug/mL streptomycin, and 10% FBS (Fetal Bovine Serum). Revaprazan, dissolved in sterilized water, were added to AGS cells to reach final concentrations of 5 and 25 uM and the cells were incubated at 37° C. for 16 hours. RPMI 1640 media was removed and then the cells washed three times with PBS (137 mM NaCl, 2.7 mM KCl, 10 mM Na2HPO4, and 2 mM KH2PO4). For inoculation, H. pylori (ATCC 43504) cultures were resuspended in PBS and cocultured with AGS cells at a final concentration of 5×10^8 CFU/ml. After 30 minutes of incubation at 37° C., the cells were resuspended in lysis buffer (20 mM Tris-Cl (pH 7.5), 150 mM NaCl, 1% Triton X-100, 1 mM EDTA, and protease inhibitor cocktail (Roche, Mannheim, Germany)). The suspension was sonicated for approximately 10 seconds, four times using the BIORUPTOR (Cosmo Bio, Koto-ku, Tokyo), and centrifuged at 4° C., 12000 rpm for 30 minutes. […]"}, "[3]": {"tested_on": "ethanol-induced gastric mucosal lesions", "assay": "Preventive effect on in vivo ethanol-induced gastric injury", "design": "species or system Sprague-Dawley male rats", "details": "rats, 10 mg/kg via oro-gastric tube prior to absolute ethanol 6 ml/kg for 1 hr, FIG. 3B", "excerpt": "Six-week old specific-pathogen-free (SPF) Sprague-Dawley male rats (Charles River, Tokyo, Japan) were used for experiments. The rats were fed a sterilized commercial pellet diet (Biogenomics Co., Seoul, Korea), given sterile water ad libitum, and housed in air-conditioned biohazard room with a 12-h light:12-h dark cycle. The rats were divided into four groups; indomethacin-only treatment group, revaprazan-indomethacin treatment group, ethanol-only treatment group and revaprazan-ethanol treatment group. The rats were food-deprived 24 hours, and then administered with 10 mg/kg revaprazan suspended in 0.5% CMC (carboxymethylcellulose) via oro-gastric tube prior to exposure to either indomethacin (40 mg/kg for 12 hrs) or absolute ethanol (6 ml/kg for 1 hr). The stomachs of the rats belonging to the groups treated with indomethacin were excised and the degree of gastric mucosal lesions was observed (see FIG. 3A). Referring to FIG. 3A, in the indomethacin-only treatment group, increased hemorrhagic lesions in gastric mucosa were observed visually. […] Also, the stomachs of the rats belonging to the ethanol treatment groups were excised and the degree of gastric mucosal lesions was observed (see FIG. 3B)."}, "[4]": {"tested_on": "rat gastric mucosal (RGM-1) cells", "assay": "Incidence of ethanol-induced cell death (MTT assay-2)", "type": "cell-based", "details": "FIG. 2", "quoted_text": "The rat gastric mucosal (RGM-1, RIKEN cell bank, Japan) cells were seeded onto 96-well plate at 5×10^4 cells/ml and cultured in DMEM-F12 (Gibco BRL, Grand Island, N.Y., U.S.A.), supplemented with 100 units/mL penicillin, 100 ug/mL streptomycin, and 10% FBS (Fetal Bovine Serum). […] To remove DMEM-F12 media, the plate was centrifuged at 24° C., 3000 rpm for 5 minutes and washed three times with PBS (137 mM NaCl, 2.7 mM KCl, 10 mM Na2HPO4, and 2 mM KH2PO4). Then, ethanol-containing media (200 mM ethanol-containing DMEM-F12, supplemented with 100 units/mL penicillin, 100 ug/mL streptomycin, and 10% FBS) was added to the cells, and the cells were cultured at 37° C. for 16 hours. After the incubation, the culture was centrifuged at 24° C., 3000 rpm for 5 minutes to remove the culture medium and then total viable cell numbers were assessed by MTT (3-[4,5-dimethylthiazol-2-yl]-2,5-diphenyl tetrazolim bromide) assay method. 1 mg/ml of an MTT solution prepared by dissolving MTT (Amresco, Ohio, U.S.A.) in PBS (137 mM NaCl, 2.7 mM KCl, 10 mM Na2HPO4, and 2 mM KH2PO4) was added to each well (50 μl/well), followed by incubation at 37° C. for 4 hours. The supernatant was then removed by centrifugation at 24° C., 3000 rpm for 5 minutes and the formazan grains formed by the viable cells were dissolved in 99.5% dimethylsulfoxide (DMSO) (Kanto, Tokyo, Japan) (50 μl/well), and the optical intensity was measured at 540 nm using an ELISA reader (TECAN, Maennedorf, Switzerland)."}}}
{"compound": "Cc1nc(Nc2ccc(F)cc2)nc(N2CCc3ccccc3C2C)c1C", "note": "(centres unmarked) [revaprazan, 5,6-dimethyl-2-(4-fluorophenylamino)-4-(1-methyl-1,2,3,4-tetrahydroisoquinolin-2-yl)pyrimidine]", "values": [{"measurement": "expression of heat-shock proteins", "setting": "[1]", "result": "stimulating expression"}, {"measurement": "effect on ERK activation (p-ERK)", "setting": "[2]", "result": "significant, concentration-dependent inhibitory effect"}, {"measurement": "ethanol-induced gastric injury", "setting": "[3]", "result": "completely inhibited"}, {"measurement": "cytoprotective effect against ethanol-induced cytotoxicity compared with rebamipide", "setting": "[4]; 50 uM each", "result": "equal to or greater than rebamipide"}, {"measurement": "ethanol-induced gastric mucosal cytotoxicity", "setting": "[4]; 50 uM pretreatment for 16 hours, then 200 mM ethanol for 16 hours", "result": "significantly reduced"}]}
